We go through three compounds from patent publication US6949652B2, “Crystalline forms of 3-isopropyl-6-[4-(2,5-difluoro-phenyl)-oxazol-5-yl]-[1,2,4]triazolo-[4,3-A]pyridine” (Pfizer, Inc., priority 2002, dated 2005).

Series [1] can be described thus: Solid-state stability / dehydration of hydrate crystal forms. The series is classed as physicochemical. As to conditions: for Dehydration temperature range: solid crystal form. Here is the method:
Differential Scanning Calorimetry (DSC) analysis was carried out on either TA Instruments DSC2920 or TA instrument Q1000 or a Mettler DSC 821, calibrated with indium. DSC sample was prepared by weighing 2-4 mg of material in an aluminum pan with a pinhole. The sample was heated under nitrogen, at a rate of 5° C. or 10° C. per minute from 3 to 300 C.

The subject of another series is MAPKAP kinase-2. Description: MAPKAP Kinase-2 assay (LPS-stimulated monocytes, immunoprecipitation, kinase activity). As to conditions: human monocytes, LPS 30 minutes, MAPKAP kinase-2 immunoprecipitate; read-out: IC50 in the MAPKAP in vitro assay. The series is classed as cell-based. Here is the method:
Mononuclear cells are collected from heparinized human blood as detailed above. The washed cells are seeded into 6-well cluster plates at a density of 1×10^7 cells/well (in 2 ml of Medium). The plates are incubated at 37° C. in a 5% CO2 environment for 2 hours to allow adherence of the monocytes, after which time media supernatants containing non-adherent cells are removed by aspiration and 2 ml of fresh medium are added to each well. Plates are incubated overnight at 37° C. in a 5% CO2 environment.
Media are removed by aspiration. The attached cells are rinsed twice with fresh Medium, then 2 ml of D-MEM medium containing 10% heat inactivated FBS are added to each well. 3-isopropyl-6-[4-(2,5-difluoro-phenyl)-oxazol-5-yl]-[1,2,4]triazolo-[4,3-a]pyridine is prepared as a 30 mM stock solution in DMSO and diluted to 1250, 250, 50, 10, 2, and 0.4 μM in D-MEM containing 1% DMSO and 10% FBS. To individual wells of the monocyte cultures, 20 μl of these 3-isopropyl-6-[4-(2,5-difluoro-phenyl)-oxazol-5-yl]-[1,2,4]triazolo-[4,3-a]pyridine dilutions are added resulting in final 3-isopropyl-6-[4-(2,5-difluoro-phenyl)-oxazol-5-yl]-[1,2,4]triazolo-[4,3-a]pyridine concentrations of 12.5, 2.5, 0.5, 0.1, 0.02 and 0.004 μM. After a 10 minute preincubation period, 20 μl of a 10 μg/ml LPS solution are added to each well and the plates are incubated at 37° C. for 30 minutes. […]

Series [2] has as its system TNF-alpha production by human LPS-treated monocytes. Description: Inhibition of TNF-alpha production by human LPS-treated monocytes. It counts as cell-based. As to conditions: Monocyte, human mononuclear cells, 4 hours, TNF-α ELISA, read-out: IC50 in the TNFα in vitro assay. Here is the method: Inhibition of TNF-alpha Production by Human LPS-treated Monocytes
Mononuclear cells are isolated from heparinized blood (1.5 ml of 1000 units/ml heparin for injection, Elkins-Sinn, Inc. added to each 50 ml sample) using Accuspin System-Histopaque-1077 tubes (Sigma A-7054). Thirty-five milliliters of whole blood are added to each tube and the tubes are centrifuged at 2100 rpm for 20 minutes in a Beckman GS-6KR centrifuge with the brake off at room temperature. The mononuclear cells which collect at the interface are removed, diluted with Macrophage serum free medium (Gibco-BRL) (Medium) to achieve a final volume of 50 ml, and collected by centrifugation for 10 minutes. The supernatant is discarded and the cell pellet is washed 2 times with 50 ml of Medium. A sample of the suspended cells is taken before the second wash for counting. Based on this count, the washed cells are diluted with Medium containing 1% FBS to a final concentration of 2.7×10^6 cells/ml and 75 μl of the cell suspension is added to each well of a 96 well plate.
3-isopropyl-6-[4-(2,5-difluoro-phenyl)-oxazol-5-yl]-[1,2,4]triazolo-[4,3-a]pyridine may be tested at final concentrations from 2 μM to 0.016 μM, but may be tested at other concentrations, depending on desire. […]
Supernatants are analyzed for TNF-α content using R&D ELISA. […]
The amount of TNF-α immunoreactivity in the samples is calculated as follows: […]
In general terms: In an ELISA, binding on a coated surface is turned into a signal by an enzyme label.

The next series concerns TNFα. Description: In vivo inhibition of TNFα (LPS-injected rats, serum TNFα ELISA). The conditions noted are these: Rattus norvegicus, ip, drug 1 hour before LPS i.p., serum TNFα 90 minutes later. Here is the method:
In Vivo Inhibition of TNFα Rats were weighed and dosed with vehicle (0.5% methyl cellulose, Sigma) or drug. One hour later, animals were injected i.p. with LPS (50 ug/rat, Sigma L-4130). Ninety minutes later, animals were sacrificed by asphyxiation with CO2 and bled by cardiac puncture. Blood was collected in Vaccutainer tubes and spun for 20 minutes at 3000 rpm. Serum was assayed for TNFα levels using an ELISA (R&D Systems).

Compound `CC(C)c1nnc2ccc(-c3ocnc3-c3cc(F)ccc3F)cn12` [Form D, 3-Isopropyl-6-[4-(2,5-difluoro-phenyl)-oxazol-5-yl]-[1,2,4]triazolo-[4,3-a]pyridine form D] returned a Dehydration temperature range in series [1] of 30 to 70 °C.
By IC50 is commonly meant the concentration needed to halve the response being measured. As usually defined, the ED50 is the midpoint of the dose-response relation. `CC(C)c1nnc2ccc(-c3ocnc3-c3cc(F)ccc3F)cn12` [6-[4-(2,5-Difluoro-phenyl)-oxazol-5-yl]-3-isopropyl-[1,2,4]triazolo-[4,3-a]pyridine]: the IC50 (with MAPKAP kinase-2; in series [2]) was under 10 µM throughout. The ED50 with TNFα was under 50 mg/kg.
Consider `CC(C)c1nnc2ccc(-c3ocnc3-c3cc(F)ccc3F)cn12` [Form E, 3-Isopropyl-6-[4-(2,5-difluoro-phenyl)-oxazol-5-yl]-[1,2,4]triazolo-[4,3-a]pyridine form E], for which, in series [1], the “Form conversion upon dehydration” value is “converts to Form B upon dehydration” and the Dehydration temperature range was 75 to 100 °C.
